{"source": "patent US10800792B2", "about": "“Inhibitors of Bruton's tyrosine kinase and method of their use” (JANSSEN PHARMACEUTICA NV, priority 2015, dated 2020)", "biological_target": "unphosphorylated-BTK kinase domain (UP-BTK), GST-tagged human BTK (389-659aa) (Homo sapiens (Human), UniProt Q06187)", "sequence (Q06187 389-659)": "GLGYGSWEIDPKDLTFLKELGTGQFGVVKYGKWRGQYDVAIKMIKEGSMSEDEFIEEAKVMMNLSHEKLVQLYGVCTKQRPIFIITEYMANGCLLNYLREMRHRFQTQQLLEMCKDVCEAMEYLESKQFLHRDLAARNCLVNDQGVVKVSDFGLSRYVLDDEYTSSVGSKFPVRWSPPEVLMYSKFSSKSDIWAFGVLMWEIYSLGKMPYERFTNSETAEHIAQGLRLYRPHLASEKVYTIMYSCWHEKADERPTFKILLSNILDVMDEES", "test": "BTK kinase Lanthascreen binding assay", "conditions": "unphosphorylated-BTK kinase domain, 50 nM Tracer 236, 60 minutes, pIC50 = negative log of the IC50 in molar", "in_short": "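Compound binding to the unphosphorylated kinase domain was monitored by displacement of a fluorescently labelled tracer in a Lanthascreen format. Potency is given as pIC50, the negative log of the molar IC50.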", "data": [{"smiles": "CN(C)C/C=C/C(=O)N1CCC[C@@H](NC(=O)c2sc3nccc4c3c2NC(=O)N4c2cccc(-c3ccccc3)c2)C1", "note": "[Example 573, (R,E)-5-([1,1′-Biphenyl]-3-yl)-N-(1-(4-(dimethylamino)but-2-enoyl)piperidin-3-yl)-4-oxo-4,5-dihydro-3H-1-thia-3,5,8-triazaacenaphthylene-2-carboxamide]", "values": [{"measurement": "BTK_I_binding pIC50", "result": 6.6}]}, {"smiles": "C=CC(=O)N1CC[C@@H](NC(=O)c2sc3nccc4c3c2NC(=O)N4c2ccc(Oc3ccccc3)cc2)[C@@H](O)C1", "note": "[Example 574]", "values": [{"measurement": "IC50", "setting": "read-out: BTK_I_binding pIC50 (converted)", "result": 158, "unit": "nM"}]}, {"smiles": "CNCC(=O)N1CCC[C@@H](NC(=O)c2sc3nccc4c3c2NC(=O)N4c2ccc(Oc3ccccc3)c(Cl)c2)C1", "note": "[Example 575, (R)-5-(3-Chloro-4-phenoxyphenyl)-N-(1-(2-(methylamino)acetyl)piperidin-3-yl)-4-oxo-4,5-dihydro-3H-1-thia-3,5,8-triazaacenaphthylene-2-carboxamide]", "values": [{"measurement": "BTK_I_binding pIC50", "result": 7.3}]}, {"smiles": "COCC(=O)N1CCC[C@@H](NC(=O)c2sc3nccc4c3c2NC(=O)N4c2ccc(Oc3ccccc3)cc2)C1", "note": "[Example 576, (R)—N-(1-(2-Methoxyacetyl)piperidin-3-yl)-4-oxo-5-(4-phenoxyphenyl)-4,5-dihydro-3H-1-thia-3,5,8-triazaacenaphthylene-2-carboxamide]", "values": [{"measurement": "BTK_I_binding pIC50", "result": 7.3}]}, {"smiles": "O=C(N[C@@H]1CCNC1)c1sc2nccc3c2c1NC(=O)N3c1ccc(Oc2ccccc2)c(Cl)c1", "note": "[Example 577, (R)-5-(3-Chloro-4-phenoxyphenyl)-4-oxo-N-(pyrrolidin-3-yl)-4,5-dihydro-3H-1-thia-3,5,8-triazaacenaphthylene-2-carboxamide]", "values": [{"measurement": "BTK_I_binding pIC50", "result": 7.2}]}, {"smiles": "O=C1CCC(NC(=O)c2sc3nccc4c3c2NC(=O)N4c2ccc(Oc3ccccc3)cc2)CN1", "note": "(centres unmarked) [Example 578, 4-Oxo-N-(6-oxopiperidin-3-yl)-5-(4-phenoxyphenyl)-4,5-dihydro-3H-1-thia-3,5,8-triazaacenaphthylene-2-carboxamide]", "values": [{"measurement": "BTK_I_binding pIC50", "result": 6.9}]}, {"smiles": "O=C(N[C@H]1CNC[C@@H]1F)c1sc2nccc3c2c1NC(=O)N3c1ccc(Oc2ccccc2)cc1", "note": "[Example 579, N-((3S,4S)-4-Fluoropyrrolidin-3-yl)-4-oxo-5-(4-phenoxyphenyl)-4,5-dihydro-3H-1-thia-3,5,8-triazaacenaphthylene-2-carboxamide]", "values": [{"measurement": "BTK_I_binding pIC50", "result": 6.9}]}, {"smiles": "Cc1ccc(-c2cccc(N3C(=O)Nc4c(C(=O)N[C@@H]5CCCNC5)sc5nccc3c45)c2)cc1", "note": "[Example 580, (R)-5-(4′-Methyl-[1,1′-biphenyl]-3-yl)-4-oxo-N-(piperidin-3-yl)-4,5-dihydro-3H-1-thia-3,5,8-triazaacenaphthylene-2-carboxamide]", "values": [{"measurement": "BTK_I_binding pIC50", "result": 6.9}]}, {"smiles": "O=C(N[C@@H]1CCCNC1)c1sc2nccc3c2c1NC(=O)N3c1ccc(Oc2ccccc2)c(Cl)c1", "note": "[Example 581, (R)-5-(3-Chloro-4-phenoxyphenyl)-4-oxo-N-(piperidin-3-yl)-4,5-dihydro-3H-1-thia-3,5,8-triazaacenaphthylene-2-carboxamide]", "values": [{"measurement": "BTK_I_binding pIC50", "result": 6.8}]}, {"smiles": "CC(=O)N1CCC[C@@H](NC(=O)c2sc3nccc4c3c2NC(=O)N4c2ccc(Oc3ccccc3)c(Cl)c2)C1", "note": "[Example 582, (R)—N-(1-Acetylpiperidin-3-yl)-5-(3-chloro-4-phenoxyphenyl)-4-oxo-4,5-dihydro-3H-1-thia-3,5,8-triazaacenaphthylene-2-carboxamide]", "values": [{"measurement": "BTK_I_binding pIC50", "result": 6.7}]}, {"smiles": "Cc1cc(N2C(=O)Nc3c(C(=O)N[C@@H]4CCCNC4)sc4nccc2c34)ccc1Oc1ccccc1", "note": "[Example 583, (R)-5-(3-Methyl-4-phenoxyphenyl)-4-oxo-N-(piperidin-3-yl)-4,5-dihydro-3H-1-thia-3,5,8-triazaacenaphthylene-2-carboxamide]", "values": [{"measurement": "BTK_I_binding pIC50", "result": 6.7}]}]}
